Reference: article PMC12763877 (Journal of Experimental & Clinical Cancer Research : CR, 2025)

Key:
[1] = tested on: pathological choroidal neovascularization; set-up: method as in PMID 30208056; conditions: mouse model; cited from earlier work
APLNR = biological target: T1, APLNR (Homo sapiens, UniProt P35414); set-up: expressed in transfected cells; host or cells: HEK293; conditions: cited from earlier work
T1 sequence (P35414 1-380): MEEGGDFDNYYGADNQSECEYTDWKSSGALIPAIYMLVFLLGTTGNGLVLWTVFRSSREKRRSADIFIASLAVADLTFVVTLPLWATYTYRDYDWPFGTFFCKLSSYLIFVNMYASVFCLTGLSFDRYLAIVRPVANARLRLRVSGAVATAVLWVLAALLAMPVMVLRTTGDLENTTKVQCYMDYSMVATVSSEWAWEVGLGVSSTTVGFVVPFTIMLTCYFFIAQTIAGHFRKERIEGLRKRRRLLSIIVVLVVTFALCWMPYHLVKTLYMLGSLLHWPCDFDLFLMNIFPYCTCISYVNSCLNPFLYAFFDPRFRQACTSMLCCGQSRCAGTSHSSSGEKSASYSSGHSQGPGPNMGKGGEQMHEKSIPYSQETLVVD

[2] = tested on: STING signaling pathway in HUVEC; test: Western blot of STING pathway proteins; assay type: cell-based, human; conditions: NAC 5 mM pretreatment 2 h + candesartan 15 µM 48 h
Experimental: (§1) Total protein was extracted using RIPA lysis buffer (Solarbio, China) supplemented with phenylmethylsulfonyl fluoride (PMSF; Thermo Fisher Scientific, USA), protease inhibitor cocktail (Roche, Switzerland), and phosphatase inhibitor cocktail (Roche, Switzerland). Protein concentration was determined using a BCA protein assay kit (Thermo Fisher Scientific, USA). Equal amounts of protein were separated by 10% SDS-polyacrylamide gel electrophoresis (SDS-PAGE) and transferred onto nitrocellulose (NC) membranes. […] All primary antibodies were purchased from Cell Signaling Technology (CST, USA), except for GAPDH, which was obtained from Proteintech (Wuhan, China). After washing, the membranes were incubated with HRP-conjugated goat anti-rabbit or anti-mouse IgG secondary antibodies (Biosharp, China) for 1 h at room temperature. Protein bands were visualized using an enhanced chemiluminescence (ECL) detection system and scanned using a chemiluminescence imaging system.

HUVEC [3] = test: DNA damage: γ-H2AX western blot and alkaline comet assay; assay type: cell-based, human
Experimental: as §1

[4] = tested on: FAK-MMP9 signaling in HUVEC; test: Western blot of FAK and MMP-9; assay type: cell-based, human
Experimental: as §1

HUVEC [5] = test: Wound healing and Transwell assays; assay type: cell-based, human; conditions: candesartan 15, 7.5, 3.75 µM; sunitinib 2 µM; 48 h
Experimental: HUVEC cells were digested and inoculated into 6-well plates, with 1 × 10^5 cells added to each hole. On the second day, the gun head was drawn vertically along the edge of the upper lid of the hole plate. The cells were washed twice with PBS, the scratched cells were removed, and the serum free medium containing drugs was added. The photos were taken and recorded under the microscope for 0 h and cultured in a 5% CO2 incubator at 37℃. After 48 h, the sample was taken and photographed for recording. The cell scratch area was calculated with Image J software.
Migration assays were performed using the Transwell cell culture insert. HUVEC (3 × 10^4 cells) were suspended with 100µL serum-free medium containing different concentrations of compounds and placed in the upper layer of the Transwell cell culture insert, and 300µL medium containing 10% FBS was placed below the cell-permeable membrane. Following an incubation (48 h), the cells that had migrated through the membrane were stained with 0.2% crystal violet for 30 min and count.

HUVEC [6] = test: Tube formation assay; assay type: cell-based, human; conditions: candesartan 15, 7.5, 3.75 µM; sunitinib 2 µM
Experimental: The 96-well plate was coated with 50 µl matrix glue per well, and then HUVEC was inoculated into the 96-well plate coated with matrix glue with a density of 4 × 10^4 cells per well. Photos were taken with an optical microscope (Nikon, China) after culture at 37℃ and 5% CO2 for 6–8 h, and the length of the generated blood vessels was analyzed using ImageJ.

zebrafish embryos = test: Zebrafish embryo toxicity; assay type: in vivo, zebrafish (Danio rerio); conditions: embryos exposed 12 to 48 hpf, survival
Experimental: Transgenic zebrafish Tg(flk: EGFP) were obtained from the China Zebrafish Resource Center and maintained at 28 ± 1 °C under a 14-hour light/10-hour dark cycle. […] Survival rates were recorded to calculate the median lethal concentration (LC₅₀). For the retinal angiogenesis assay, embryos at 1 day post fertilization (dpf) were transferred to E3 medium containing 5 mM CoCl₂·6 H₂O and 2.5 µg/mL GS4012 to induce hypoxia and abnormal vessel formation. At 3 dpf, test compounds were added and incubation continued until 5 dpf. Blank, model, and vehicle (≤ 0.1% DMSO) controls were included, with at least three replicates per group (n = 10–15 embryos). At 5 dpf, retinal vasculature was imaged using fluorescence microscopy and analyzed for branching number, vessel length, and density using ImageJ. Data are presented as mean ± standard deviation (SD) and analyzed using one-way ANOVA followed by Tukey’s post hoc test, with p < 0.05 considered statistically significant.
The zebrafish (Danio rerio) model was employed due to its distinct advantages, the optical transparency, which enable in vivo vascular visualization. […] Firstly, the 8 candidate compounds underwent preliminary toxicity evaluation in zebrafish embryos. […] At 48 hpf, the number of surviving embryos was quantified, and the lethal dose 50 (LD50) for each compound was determined based on the survival data. […]

For `CCN(CC)Cc1cc(Nc2ccnc3cc(Cl)ccc23)ccc1O` [Amodiaquine], the Pathological choroidal neovascularization [1] is given as “reduces pathological choroidal neovascularization” and the “Inhibition of APLN/APLNR signaling” value (APLNR) is given as “inhibits APLN/APLNR signaling in a concentration-dependent manner”.

With `CC(=O)N[C@@H](CS)C(=O)O` [NAC, N-acetylcysteine] the “Effect on candesartan-induced STING pathway upregulation” value [2] was “attenuated candesartan-induced upregulation of STING pathway components”, the “Effect on candesartan-induced γ-H2AX expression” value (HUVEC [3]; NAC 5 mM + candesartan 15 µM) was “significantly reduced γ-H2AX expression” and the “Effect on candesartan-induced DNA damage (comet assay)” value (HUVEC [3]; NAC 5 mM pre-treatment + candesartan 15 µM) was “effectively mitigate candesartan-induced DNA damage”.

In the case of `CCN(CC)CCNC(=O)c1c(C)[nH]c(/C=C2\C(=O)Nc3ccc(F)cc32)c1C` [Sunitinib], the “Expression of MMP9 and FAK” value [4] was “significantly decreased the expression of MMP9 and FAK”, the “Migratory and invasive capacities of HUVECs” value (HUVEC [5]) was “significantly reduced the migratory and invasive capacities of HUVECs” and the “Tube formation: mean mesh size and total mesh area” value (HUVEC [6]) was “increase the mean mesh and the total meshe area”. The “Tube formation: number of junctions, total segment length, number of meshes” value (HUVEC [6]) was “significantly reduced the number of junctions, total segment length, and the number of meshes”.

With `CSCC[C@H](NC(=O)[C@@H]1CCCN1C(=O)CNC(=O)[C@H](CCCCN)NC(=O)[C@H](Cc1c[nH]cn1)NC(=O)[C@H](CO)NC(=O)[C@H](CC(C)C)NC(=O)[C@H](CCCNC(=N)N)NC(=O)[C@@H]1CCCN1C(=O)[C@H](CCCNC(=N)N)NC(=O)[C@@H](N)CCC(N)=O)C(=O)N1CCC[C@H]1C(=O)N[C@@H](C)C(=O)O` [Compound F13A] the “LD50(µM,48 h)” value (zebrafish embryos) was 2.85 ± 0.31 µM.
